pIC50: −log10 of the molar value. Where a name gives a salt, the structure may show the parent alone.
Key:
Assay type in all cases: cell-based
human TLR8 = target: T1, human TLR8 (Homo sapiens, UniProt Q9NR97); experiment: TLR8 inhibition reporter assay (HEK-Blue SEAP reporter); details: HEK-Blue cells overexpressing human TLR8; R848 15.9 μM; 22 hour incubation
T1 construct: host or cells: HEK-Blue cells
T1 sequence (Q9NR97 27-1041): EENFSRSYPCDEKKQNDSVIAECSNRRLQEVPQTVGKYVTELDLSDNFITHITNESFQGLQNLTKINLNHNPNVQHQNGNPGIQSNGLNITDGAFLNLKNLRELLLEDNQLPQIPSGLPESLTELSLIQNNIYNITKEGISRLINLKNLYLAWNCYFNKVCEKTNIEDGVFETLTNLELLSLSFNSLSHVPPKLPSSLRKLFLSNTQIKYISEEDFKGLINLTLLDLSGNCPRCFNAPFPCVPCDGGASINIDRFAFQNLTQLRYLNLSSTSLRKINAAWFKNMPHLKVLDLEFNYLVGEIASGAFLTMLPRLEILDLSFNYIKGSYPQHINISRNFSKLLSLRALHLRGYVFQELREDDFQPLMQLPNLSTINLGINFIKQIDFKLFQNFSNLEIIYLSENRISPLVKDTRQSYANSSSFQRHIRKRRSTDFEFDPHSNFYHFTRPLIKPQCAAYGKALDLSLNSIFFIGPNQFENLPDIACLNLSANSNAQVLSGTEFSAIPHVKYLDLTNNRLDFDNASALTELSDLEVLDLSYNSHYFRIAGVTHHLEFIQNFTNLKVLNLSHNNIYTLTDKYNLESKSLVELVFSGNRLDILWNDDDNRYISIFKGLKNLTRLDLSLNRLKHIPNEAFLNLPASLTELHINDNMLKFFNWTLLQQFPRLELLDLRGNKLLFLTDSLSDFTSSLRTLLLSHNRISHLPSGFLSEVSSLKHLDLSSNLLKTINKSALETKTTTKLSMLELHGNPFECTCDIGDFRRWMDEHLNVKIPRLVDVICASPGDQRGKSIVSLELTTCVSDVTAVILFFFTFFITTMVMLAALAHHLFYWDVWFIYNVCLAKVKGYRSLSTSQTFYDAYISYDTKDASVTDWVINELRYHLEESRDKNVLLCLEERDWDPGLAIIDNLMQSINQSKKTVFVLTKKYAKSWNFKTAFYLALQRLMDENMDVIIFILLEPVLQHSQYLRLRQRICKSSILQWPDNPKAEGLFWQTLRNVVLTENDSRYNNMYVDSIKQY
How it was run: (§1)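 Human TLR7/8/9 HEK-Blue reporter lines; dose range 0.05 nM–50 μM; 30 min RT preincubation; stimulus gardiquimod 7.5 μM / R848 15.9 μM / ODN2006 5 nM respectively; 22 h, 37 °C; SEAP detected colorimetrically.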

human TLR9 = target: T2, human TLR9 (Homo sapiens, UniProt Q9NR96); experiment: TLR9 inhibition reporter assay (HEK-Blue SEAP reporter); details: HEK-Blue cells overexpressing human TLR9; ODN2006 5 nM; 22 hour incubation
T2 construct: host or cells: HEK-Blue cells
T2 sequence (Q9NR96 26-1032): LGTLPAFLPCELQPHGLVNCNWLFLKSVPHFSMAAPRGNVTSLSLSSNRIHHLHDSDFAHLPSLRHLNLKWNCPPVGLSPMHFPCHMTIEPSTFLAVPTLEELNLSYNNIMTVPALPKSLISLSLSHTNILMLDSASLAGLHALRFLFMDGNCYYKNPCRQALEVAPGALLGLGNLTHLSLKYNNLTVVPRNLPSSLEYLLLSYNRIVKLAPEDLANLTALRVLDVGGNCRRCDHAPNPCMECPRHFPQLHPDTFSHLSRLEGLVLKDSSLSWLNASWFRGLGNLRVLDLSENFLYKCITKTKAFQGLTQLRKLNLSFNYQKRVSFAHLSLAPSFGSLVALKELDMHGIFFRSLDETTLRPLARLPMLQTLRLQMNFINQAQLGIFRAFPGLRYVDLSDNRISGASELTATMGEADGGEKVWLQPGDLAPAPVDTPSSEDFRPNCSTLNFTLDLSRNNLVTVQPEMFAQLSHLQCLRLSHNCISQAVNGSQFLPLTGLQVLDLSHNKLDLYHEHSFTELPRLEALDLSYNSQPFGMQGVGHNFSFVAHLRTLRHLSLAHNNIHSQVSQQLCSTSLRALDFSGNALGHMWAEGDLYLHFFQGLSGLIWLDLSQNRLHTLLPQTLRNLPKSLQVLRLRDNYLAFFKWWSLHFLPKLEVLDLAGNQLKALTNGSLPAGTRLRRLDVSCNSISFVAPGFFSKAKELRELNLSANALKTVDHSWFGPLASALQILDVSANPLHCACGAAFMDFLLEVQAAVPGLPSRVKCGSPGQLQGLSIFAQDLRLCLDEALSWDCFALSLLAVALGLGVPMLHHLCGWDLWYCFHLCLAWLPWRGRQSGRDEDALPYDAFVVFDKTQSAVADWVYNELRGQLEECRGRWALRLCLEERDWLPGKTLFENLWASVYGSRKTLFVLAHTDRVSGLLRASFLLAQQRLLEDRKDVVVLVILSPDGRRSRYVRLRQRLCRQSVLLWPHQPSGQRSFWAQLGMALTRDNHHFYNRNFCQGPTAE
How it was run: as §1

human TLR7 = target: T3, human TLR7 (Homo sapiens, UniProt Q9NYK1); experiment: TLR7 inhibition reporter assay (HEK-Blue SEAP reporter); details: HEK-Blue cells overexpressing human TLR7; gardiquimod 7.5 μM; 22 hour incubation
T3 construct: host or cells: HEK-Blue cells
T3 sequence (Q9NYK1 27-1049): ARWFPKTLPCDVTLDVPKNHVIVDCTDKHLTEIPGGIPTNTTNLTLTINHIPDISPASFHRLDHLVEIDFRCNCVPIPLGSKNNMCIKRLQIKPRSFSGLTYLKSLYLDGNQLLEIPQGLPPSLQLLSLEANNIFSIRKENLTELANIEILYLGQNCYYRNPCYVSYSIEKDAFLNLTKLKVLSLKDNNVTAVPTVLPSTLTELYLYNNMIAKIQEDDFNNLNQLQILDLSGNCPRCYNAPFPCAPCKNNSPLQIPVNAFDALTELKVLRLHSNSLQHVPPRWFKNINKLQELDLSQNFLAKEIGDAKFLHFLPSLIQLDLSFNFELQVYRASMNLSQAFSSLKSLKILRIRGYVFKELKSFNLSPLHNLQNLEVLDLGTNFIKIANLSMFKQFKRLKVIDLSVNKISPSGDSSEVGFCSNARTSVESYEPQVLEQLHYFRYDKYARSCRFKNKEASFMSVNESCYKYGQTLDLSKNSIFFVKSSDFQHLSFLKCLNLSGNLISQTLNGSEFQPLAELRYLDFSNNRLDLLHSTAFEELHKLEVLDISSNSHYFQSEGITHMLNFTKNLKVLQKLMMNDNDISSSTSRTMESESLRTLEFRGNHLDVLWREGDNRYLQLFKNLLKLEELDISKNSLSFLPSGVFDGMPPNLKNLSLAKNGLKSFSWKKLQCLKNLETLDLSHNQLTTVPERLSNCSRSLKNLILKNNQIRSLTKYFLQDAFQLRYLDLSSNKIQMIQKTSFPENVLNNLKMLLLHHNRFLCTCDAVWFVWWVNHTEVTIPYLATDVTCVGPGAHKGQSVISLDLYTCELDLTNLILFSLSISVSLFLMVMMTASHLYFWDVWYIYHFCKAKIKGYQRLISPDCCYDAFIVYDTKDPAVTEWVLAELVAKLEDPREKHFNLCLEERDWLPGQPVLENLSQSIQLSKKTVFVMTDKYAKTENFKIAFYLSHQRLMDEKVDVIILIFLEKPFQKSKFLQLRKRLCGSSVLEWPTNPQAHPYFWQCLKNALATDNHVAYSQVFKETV
How it was run: as §1

Compound	pIC50 (human TLR8)	pIC50 (human TLR9)	pIC50 (human TLR7)
COc1ccc(-c2[nH]c3ccc(N4CCC(NC5CCN(C)CC5)CC4)cc3c2C(C)C)cc1OC [Example 79, 1-(2-(3,4-dimethoxyphenyl)-3-isopropyl-1H-indol-5-yl)-N-(1-methylpiperidin-4-yl)piperidin-4-amine]	8.33	6.19	8.01
COc1ccc(-c2[nH]c3ccc(N4CCNCC4)cc3c2C(C)C)cc1OC [Example 126, 2-(3,4-dimethoxyphenyl)-3-isopropyl-5-(piperazin-1-yl)-1H-indole, TFA Salt]	7.85	5.32	7.28
COc1ccc(-c2[nH]c3ccc(N4CCCCC4c4ccncc4)cc3c2C(C)C)cc1OC (stereo not drawn) [Example 113, 2-(3,4-dimethoxyphenyl)-3-isopropyl-5-(2-(pyridin-4-yl)piperidin-1-yl)-1H-indole]	5.89	< 4.30	5.92
Cc1c(-c2ccnc3[nH]ccc23)[nH]c2ccc(N3CCN(C4CCN(C(C)C)CC4)CC3)cc12 [Example 151, 4-(5-(4-(1-isopropylpiperidin-4-yl)piperazin-1-yl)-3-methyl-1H-indol-2-yl)-1H-pyrrolo[2,3-b]pyridine]	4.32	6.49	5.37
CCc1c(-c2ccnc(C)c2)[nH]c2ccc(N3CCN(C4CCN(CC)CC4)CC3)cc12 [Example 142, 3-ethyl-5-(4-(1-ethylpiperidin-4-yl)piperazin-1-yl)-2-(2-methylpyridin-4-yl)-1H-indole]	5.10	6.65	5.44
Cc1cc(-c2[nH]c3ccc(N4CCC(OCCN(C)C)C4=O)cc3c2C(C)C)ccn1 (stereo not drawn) [Example 7, 3-(2-(dimethylamino)ethoxy)-1-(3-isopropyl-2-(2-methylpyridin-4-yl)-1H-indol-5-yl)pyrrolidin-2-one]	6.22	4.76	5.80
CCc1c(-c2ccc(OC)c(OC)c2)[nH]c2ccc(N3CCN(C4CCN(CC)CC4)CC3)cc12 [Example 163, 2-(3,4-dimethoxyphenyl)-3-ethyl-5-(4-(1-ethylpiperidin-4-yl)piperazin-1-yl)-1H-indole]	8.03	6.15	7.17
COc1ccc(-c2[nH]c3ccc(NC(=O)[C@@H](N)CCC(=O)O)cc3c2C(C)C)cc1OC [Example 24, (S)-4-amino-5-((2-(3,4-dimethoxyphenyl)-3-isopropyl-1H-indol-5-yl)amino)-5-oxopentanoic acid]	6.67	< 4.30	5.97
COc1ccc(-c2[nH]c3ccc(N4CCC(NC5CC(C)(C)N(C)C(C)(C)C5)CC4)cc3c2C(C)C)cc1OC [Example 95, N-(1-(2-(3,4-dimethoxyphenyl)-3-isopropyl-1H-indol-5-yl)piperidin-4-yl)-1,2,2,6,6-pentamethylpiperidin-4-amine]	8.11	6.27	7.41
COc1ccc(-c2[nH]c3ccc(N4CCN(C5CC(C)(C)NC(C)(C)C5)CC4)cc3c2C(C)C)cc1OC [Example 68, 2-(3,4-dimethoxyphenyl)-3-isopropyl-5-(4-(2,2,6,6-tetramethyl-112-piperidin-4-yl)piperazin-1-yl)-1H-indole]	7.96	6.17	7.47
COc1ccc(-c2[nH]c3ccc(NC4CCC(NCCN5CCOCC5)CC4)cc3c2C(C)C)cc1OC (stereo not drawn) [Example 47, N1-(2-(3,4-dimethoxyphenyl)-3-isopropyl-1H-indol-5-yl)-N4-(2-morpholinoethyl)cyclohexane-1,4-diamine]	6.56	6.20	6.65
COc1ccc(-c2[nH]c3ccc(N4CCC(N5CC(O)CC5=O)CC4)cc3c2C(C)C)cc1OC (stereo not drawn) [Example 116, 1-(1-(2-(3,4-dimethoxyphenyl)-3-isopropyl-1H-indol-5-yl)piperidin-4-yl)-4-hydroxypyrrolidin-2-one]	7.03	4.72	6.03
COc1ccc(-c2[nH]c3ccc(N4CCC(=O)N(CCN(C)C)CC4)cc3c2C(C)C)cc1OC [Example 107, 1-(2-(3,4-dimethoxyphenyl)-3-isopropyl-1H-indol-5-yl)-4-(2-(dimethylamino)ethyl)-1,4-diazepan-5-one]	7.26	5.46	7.51
CC(C)c1c(-c2ccnc3[nH]ccc23)[nH]c2ccc(N3CCNCC3)cc12 [Example 128, 4-(3-isopropyl-5-(piperazin-1-yl)-1H-indol-2-yl)-1H-pyrrolo[2,3-b]pyridine]	9.39	5.09	8.64
COc1ccc(-c2[nH]c3ccc(N4CC5CCCNC5C4)cc3c2C(C)C)cc1OC (stereo not drawn) [Example 135, 6-(2-(3,4-dimethoxyphenyl)-3-isopropyl-1H-indol-5-yl)octahydro-1H-pyrrolo[3,4-b]pyridine]	7.02	5.61	6.11

— patent US11306092B2, “Amino indole compounds useful as TLR inhibitors” (BRISTOL-MYERS SQUIBB COMPANY, priority 2017, dated 2022)
